From patent US20240423981A1, “TREATMENT OF HCM WITH PYRIMIDINEDIONE COMPOUNDS” (MyoKardia, Inc., priority 2017, published 2024)
Entries after “also recorded” stand apart in the source; their conditions may differ.

Columns and labels:
[1] = system: subjects with symptomatic HCM and LVOT obstruction; assay: Phase 2 open-label pilot study Pioneer-HCM-A (Cohort A); type: in vivo, human; details: for Lateral e′ Week 12: baseline 6.9 ± 1.9; for E/e′ Week 12: baseline 12.9 ± 3.3
From the text: This is a phase 2 open-label pilot study to evaluate the efficacy, PK, PD, safety, and tolerability of Compound 1 in subjects with symptomatic HCM and LVOT obstruction. Approximately 10 adult subjects with symptomatic HCM, a resting LVOT gradient ≥30 mm Hg, and post-exercise peak LVOT gradient ≥50 mm Hg will be enrolled. The study will have a 12-week treatment phase and a 4-week washout phase (FIG. 3).
At Screening, subjects will undergo transthoracic echocardiography (TTE) in the supine or left lateral decubitus position. In addition to a standardized complete TTE, both resting instantaneous peak LVOT gradient (baseline) and provoked peak LVOT gradient will be collected. Subjects will then undergo a standard symptom-limited exercise test (hemodynamic stress echocardiography). Subjects will be assessed systematically for symptoms of dyspnea and/or angina. Instantaneous peak LVOT gradient will be assessed immediately post-exercise by TTE.
On Day 1, resting TTE will be performed, blood samples will be drawn for PK, and subjects will have an assessment of pVO2, VE/VCO2, and other variables via cardiopulmonary exercise testing (CPET). After CPET, subjects will be dosed with open-label oral Compound 1 at the investigational site and will be observed for at least 1 hour after dosing, with assessment of vital signs and ECGs at 1 hour postdose. Subjects will then be supplied with Compound 1 sufficient for QD dosing at home.
Subjects will be evaluated at the investigational site at Weeks 1, 2, 3, 4, 5, 6, 7, 8, 12, and 16. At each of these visits, resting TTE will be performed and blood samples will be drawn for PK. On study visit days, study medication will be administered at the investigational site in order to collect blood samples for PK about 2 hours prior to dosing. At Weeks 4, 12, and 16, hemodynamic stress echocardiography will be performed and peak LVOT gradient will be assessed. CPET will be conducted between Weeks 10 and 12 (inclusive).
The Compound 1 starting dose will be 10 mg for subjects who weigh […] 60 kg and 15 mg for subjects who weigh >60 kg. At the end of Week 4 (Day 28), each subject's LVEF will be evaluated, and the subject's dose may be increased, decreased, or remain unchanged based on the predetermined criteria in Table 6, in consultation between the investigator and the medical monitor. If Compound 1 plasma concentration exceeds 750 ng/mL at Week 2, no dose increase is allowed, regardless of LVEF data at Week 4; however, dose decrease per LVEF data is allowed in this circumstance. The subject will subsequently receive that dose from Week 5 through Week 12.
The following results were obtained generally following the procedures described in Example 3. Each subject in the following trials discontinued β-blocker, calcium-channel blocker, and/or disopyramide therapy at least 14 days prior to the screening visit.

[2] = system: subjects with clinically stable HCM; assay: Study Compound 1-001 (MYK-461-001): SAD trial in HCM patients; type: in vivo, human; details: for LVOT Gradient Post-dose: upon provocation
Method: Three clinical studies have investigated the safety and tolerability of Compound 1 to date; conduct of 2 studies has completed and 1 study is ongoing. A double-blind, placebo-controlled, single ascending-dose study (SAD) (Compound 1-002) was conducted in healthy men. Subjects received single doses ranging from 1 mg to 48 mg. Conduct of an open-label sequential-group SAD study in subjects with clinically stable HCM (Compound 1-001) is also complete; single doses of up to 144 mg were administered. In addition, a double-blind, placebo-controlled, multiple ascending-dose (MAD) study (Compound 1-003) is being conducted in which healthy adult subjects have received multiple doses of Compound 1 up to 25 mg once daily (QD) for up to 28 days.
In Study MYK-461-001, single doses of up to 144 mg were administered to 15 subjects with HCM. […] In terms of causality assessment, there are no nonclinical or other clinical data to implicate Compound 1 in cardiac ion channel current modulation, or cardiac impulse generation or conduction. […] Other potential contributions to the event include chronic […] with metoprolol succinate 150 mg QD, and the observation that the subject inadvertently performed the Valsalva maneuver during the handgrip strength assessment immediately prior to the event.
LVOT obstruction was resolved in patients following a single dose of Compound 1, as shown in the results in Table 2. […] Each patient was administered single 96 mg dose of Compound 1. Both patients' gradients were resolved following dosing.

[3] = Cohort A (10-15 mg/day), N = 10, mean ± SD
[4] = Cohort A, baseline to Week 12, n 10

In the case of `CC(C)n1c(=O)cc(N[C@@H](C)c2ccccc2)[nH]c1=O` [Compound 1, (S)-3-Isopropyl-6-((1-phenylethyl)amino) pyrimidine-2, 4(1H,3H)-dione], the “LV filling pressure and diastolic wall stress” value ([1]; 15 mg/day, oHCM patients) is reported as “improvement in LV filling pressure (reduced E/e′) and diastolic wall stress (reduced NTpro-BNP)”, the LVOT gradient ([1]; 15 mg/day, oHCM patients) is reported as “eliminates LVOT gradient” and the “resting LV systolic function” value ([1]; 15 mg/day, oHCM patients) is reported as “decreases resting LV systolic function”. For the same compound, the “resting LVOT gradient” value ([1]; 10, 15 or 20 mg, weeks 0 to 12) was “abolished as early as week 1 in most subjects and by week 2 in all subjects”, the “change in LVEF (stress ejection fraction)” value ([1]; 10 or 15 mg, weeks 0, 4 and 12) was “minimal change” and the “stress LVOT gradient” value ([1]; 10 or 15 mg, weeks 0, 4 and 12) was “abolished”. For the same compound, the “Resting LVEF Week 12” value ([1]; Cohort A (10-15 mg/day), LVEF N = 4, mean ± SD, baseline 70 ± 6) was 54 ± 12%, the “Post-exercise LVEF Week 12” value ([1]; Cohort A (10-15 mg/day), LVEF N = 4, mean ± SD, baseline 76 ± 5) was 60 ± 22% and the “Septal e′ Week 12” value ([1]; Cohort A (10-15 mg/day), N = 10, mean ± SD, baseline 5 4 ± 1 6) was 6.4 ± 1.5 cm/s. The “Mean e′ Week 12” value ([1]; Cohort A (10-15 mg/day), N = 10, mean ± SD, baseline 5.7 ± 1.2) was 7.4 ± 1.6 cm/s, the “Lateral e′ Week 12” value [1, 3] was 8.8 ± 1.6 cm/s and the “E/e′ Week 12” value [1, 3] was 9.1 ± 2.1. For the same compound, the “Resting Gradient Week 12” value ([1]; Cohort A (10-15 mg/day), N = 10, mean ± SD, baseline 68 ± 34) was 14 ± 25 mm Hg, the “Post-exercise Gradient Week 12” value ([1]; Cohort A (10-15 mg/day), N = 10, mean ± SD, baseline 125 ± 60) was 19 ± 13 mm Hg and the “NT-pro BNP Week 12” value ([1]; Cohort A (10-15 mg/day), N = 10, mean ± SD, baseline 939 ± 647) was 235 ± 417 pg/mL. The “E/e′ Delta” value ([1]; Cohort A, baseline to Week 12, n 8) was −3.6 ± 3.7, the “Lateral e′ Delta” value ([1]; Cohort A, baseline to Week 12, n 9) was 1.6 ± 1.9 cm/s and the “Dyspnea score Delta” value [1, 4] was −3.1 ± 1.4. For the same compound, the “LA Vol (index) Delta” value [1, 4] was 1 ± 7 mL/m^2, the “NT-proBNP Delta” value [1, 4] was −459 ± 722 and the “LVEDV Delta” value ([1]; Cohort A, baseline to Week 12, n 11) was 16 ± 21. The “Dyspnea score Week 12” value ([1]; Cohort A, baseline 4.9 ± 1.6, n 10) was 1.7 ± 1.8, the “Lateral e′ Week 12” value ([1]; Cohort A, n 9) was 8.7 ± 1.6 cm/s and the “E/e′ Week 12” value ([1]; Cohort A, n 8) was 9.1 ± 2.2. The “LA Vol (index) Week 12” value ([1]; Cohort A, baseline 30 ± 10, n 10) was 31 ± 8 mL/m^2, the “LVEDV Week 12” value ([1]; Cohort A, baseline 82 ± 24, n 11) was 97 ± 24 and the “NT-proBNP Week 12” value ([1]; Cohort A, baseline 930 ± 647, n 10) was 454 ± 551. The dyspnea symptom score ([1]; Day 1 to Week 16, dosing through week 12) was “improves with Compound 1 administration, returning after cessation of therapy; also recorded: improve”, the “resting LVEF versus Compound 1 concentration” value ([1]; FIG. 8) was “exposure-dependent decrease” and the “increase in exercise capacity (pVO2) versus change in LVEF” value ([1]; FIG. 14) was “greatest in patients with the least decrease in LVEF”. For the same compound, the “oHCM phenotype after cessation (resting LVOT gradient, resting LVEF)” value ([1]; administration stopped after week 12) was “returns after cessation of Compound 1”, the “most robust improvements in pVO2” value ([1]; associated with minimal change in resting LVEF) was > 3 mL/min/kg and the “peak VO2 during CPET” value ([1]; baseline versus week 12) was “improves CPET metric; also recorded: improve”. The “peak circulatory power during CPET” value ([1]; baseline versus week 12) was “improves CPET metric; also recorded: improve”, the tolerability ([1]; doses up to 20 mg QD) was “well tolerated” and the “Compound 1 concentration associated with reduction of resting gradient below hemodynamic significance” value ([1]; plasma) was > 225 ng/mL. The NT-proBNP levels ([1]; weeks 0, 4, 8 and 12) was “reduced after 4 weeks of Compound 1 but can rebound with higher exposures”, the “NYHA Class” value ([1]; with Compound 1 therapy) was “improve” and the Responders % ([2]; 48 mg single dose cohort) was 50%. The Responders n ([2]; 48 mg single dose cohort) was 2/4, the Responders % ([2]; 96 mg single dose cohort) was 83% and the Responders n ([2]; 96 mg single dose cohort) was 5/6. The Responders % ([2]; 144 mg single dose cohort) was 80%, the Responders n ([2]; 144 mg single dose cohort) was 4/5 and the “LVOT gradients following Valsalva after dosing” value ([2]; 2 subjects, single 96 mg dose) was < 10 mm Hg. The “LVOT Gradient % Decrease” value ([2]; Patient 1, single 96 mg dose) was “(79%)”, the “LVOT Gradient Post-dose” value ([2]; Patient 1, single 96 mg dose, pre-dose 42) was 9 mmHg and the “LVOT Gradient % Decrease” value ([2]; Patient 2, single 96 mg dose) was “(82%)”. The “LVOT Gradient Post-dose” value ([2]; Patient 2, single 96 mg dose, pre-dose 28) was 5 mmHg, the “proof of mechanism: LV contractility” value ([2]; all subjects with HCM, single doses 48-144 mg) was “reduced LV contractility by at least 1 of 3 independent echocardiographic measures” and the “number of adverse events (AEs)” value ([2]; human, in vivo) was 35. For the same compound, the “severity of adverse events” value ([2]; human, in vivo) was “all mild to moderate”, the tolerability ([2]; single doses of up to 144 mg, 15 subjects with HCM) was “well tolerated without deaths, withdrawals due to AEs, or dose-related treatment-emergent AEs, except for 1 of 5 subjects who received the 144 mg dose” and the “LVOT obstruction after a single dose” value ([2]; two subjects with LVOT pressure gradient, single 96 mg dose) was “resolved”.
